According to patent US8686150B2 (Sanofi, priority 2011, dated 2014):

biological target: T1, human full-length recombinant PKC βII (Homo sapiens, UniProt P05771); assay: Determination of PKC βII inhibition (Caliper mobility-shift kinase assay, Fluorescein-RFARKGSLRQKNV peptide substrate); format: biochemical; details: example compounds at a final concentration of 1.14 μM (±0.15 μM)
T1 construct: Active human full-length recombinant PKC βII; purchased Invitrogen GmbH, Darmstadt, Germany
Outline: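 Full-length PKC βII (30 ng/ml in pre-dilution) with PS/DAG/Ca2+ activators, pH 7.4; fluorescein peptide and ATP at 3 μM and 120 μM before mixing. Reaction ran 60 min at 32 °C, was EDTA-stopped, and was read by mobility shift. % inhibition came from product/(substrate+product) peak heights, tested at 1.14 μM final.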

T1 sequence (P05771 1-673 isoform P05771-2): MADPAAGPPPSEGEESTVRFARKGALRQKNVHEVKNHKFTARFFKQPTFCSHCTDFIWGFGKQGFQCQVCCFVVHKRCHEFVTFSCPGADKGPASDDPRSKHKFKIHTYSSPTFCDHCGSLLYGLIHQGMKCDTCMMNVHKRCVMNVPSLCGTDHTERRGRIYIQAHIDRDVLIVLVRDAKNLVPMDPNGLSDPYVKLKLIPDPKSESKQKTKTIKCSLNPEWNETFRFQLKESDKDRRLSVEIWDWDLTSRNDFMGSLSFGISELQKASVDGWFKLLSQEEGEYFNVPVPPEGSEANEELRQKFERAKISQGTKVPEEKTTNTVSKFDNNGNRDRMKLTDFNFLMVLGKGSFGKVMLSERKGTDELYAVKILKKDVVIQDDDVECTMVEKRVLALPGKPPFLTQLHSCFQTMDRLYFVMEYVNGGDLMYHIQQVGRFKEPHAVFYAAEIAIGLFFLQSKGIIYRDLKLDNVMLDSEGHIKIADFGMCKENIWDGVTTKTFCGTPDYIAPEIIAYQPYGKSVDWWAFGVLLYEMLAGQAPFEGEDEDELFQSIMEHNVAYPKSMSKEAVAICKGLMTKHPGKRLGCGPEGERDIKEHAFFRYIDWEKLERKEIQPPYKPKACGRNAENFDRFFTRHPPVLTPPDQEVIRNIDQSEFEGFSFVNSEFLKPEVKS

Row | Compound | inhibition at 1.14 µM [%] | % Inhibition [%]
1 | CCc1n[nH]c2nc(-c3ccc(O)cc3)cc(C(=O)NC3CC4CCCC(C3)N4C)c12 (stereo not drawn) [Example 184, 3-Ethyl-6-(4-hydroxy-phenyl)-1H-pyrazolo[3,4-b]pyridine-4-carboxylic acid (9-methyl-9-aza-bicyclo[3.3.1]non-3-yl)-amide] | 22 | 
2 | CCc1n[nH]c2nc(-c3ccc(O)cc3)cc(C(=O)N[C@@H]3CCC(=O)NC3)c12 [Example 185, 3-Ethyl-6-(4-hydroxy-phenyl)-1H-pyrazolo[3,4-b]pyridine-4-carboxylic acid ((R)-6-oxo-piperidin-3-yl)-amide] | 34 | 
3 | CCc1n[nH]c2nc(-c3ccc(O)cc3)cc(C(=O)NCC3CCC(=O)N3)c12 (stereo not drawn) [Example 186, 3-Ethyl-6-(4-hydroxy-phenyl)-1H-pyrazolo[3,4-b]pyridine-4-carboxylic acid (5-oxo-pyrrolidin-2-ylmethyl)-amide] | 33 | 
4 | CCc1n[nH]c2nc(-c3ccc(O)cc3)cc(C(=O)N3CCCN(CC)CC3)c12 [Example 187, (4-Ethyl-[1,4]diazepan-1-yl)-[3-ethyl-6-(4-hydroxy-phenyl)-1H-pyrazolo[3,4-b]pyridin-4-yl]-methanone] | 58 | 
5 | Cc1n[nH]c2nc(-c3ccc(O)cc3)cc(C(=O)N3CCNC[C@@H]3C)c12 [Example 188, [6-(4-Hydroxy-phenyl)-3-methyl-1H-pyrazolo[3,4-b]pyridin-4-yl]-((S)-2-methyl-piperazin-1-yl)-methanone] | 105 | 
6 | Cc1n[nH]c2nc(-c3ccc(O)cc3)cc(C(=O)N3CCN[C@H](C)C3)c12 [Example 189, [6-(4-Hydroxy-phenyl)-3-methyl-1H-pyrazolo[3,4-b]pyridin-4-yl]-((R)-3-methyl-piperazin-1-yl)-methanone] | 96 | 
7 | Cc1n[nH]c2nc(-c3ccc(O)cc3)cc(C(=O)N3CCN[C@@H](C)C3)c12 [Example 190, [6-(4-Hydroxy-phenyl)-3-methyl-1H-pyrazolo[3,4-b]pyridin-4-yl]-((S)-3-methyl-piperazin-1-yl)-methanone] | 101 | 
8 | Cc1n[nH]c2nc(-c3ccc(O)cc3)cc(C(=O)NC3CC4(CC(N)C4)C3)c12 (stereo not drawn) [Example 191, 6-(4-Hydroxy-phenyl)-3-methyl-1H-pyrazolo[3,4-b]pyridine-4-carboxylic acid (6-amino-spiro[3.3]hept-2-yl)-amide] | 78 | 
9 | Cc1n[nH]c2nc(-c3ccc(O)cc3)cc(C(=O)N3CC4CNCC4C3)c12 (stereo not drawn) [Example 192, (Hexahydro-pyrrolo[3,4-c]pyrrol-2-yl)-[6-(4-hydroxy-phenyl)-3-methyl-1H-pyrazolo[3,4-b]pyridin-4-yl]-methanone] | 99 | 
10 | Cc1n[nH]c2nc(-c3ccc(O)cc3)cc(C(=O)NC3CC4CC3CN4)c12 (stereo not drawn) [Example 193, 6-(4-Hydroxy-phenyl)-3-methyl-1H-pyrazolo[3,4-b]pyridine-4-carboxylic acid (2-aza-bicyclo[2.2.1]hept-5-yl)-amide] | 94 | 
11 | Cc1n[nH]c2nc(-c3ccc(O)cc3)cc(C(=O)N3CCNC(C)C3C)c12 (stereo not drawn) [Example 194, (2,3-Dimethyl-piperazin-1-yl)-[6-(4-hydroxy-phenyl)-3-methyl-1H-pyrazolo[3,4-b]pyridin-4-yl]-methanone] | 99 | 
12 | CCC[C@@H]1CN(C(=O)c2cc(-c3ccc(O)cc3)nc3[nH]nc(C)c23)CCN1 [Example 195, [6-(4-Hydroxy-phenyl)-3-methyl-1H-pyrazolo[3,4-b]pyridin-4-yl]-((R)-3-propyl-piperazin-1-yl)-methanone] | 95 | 
13 | Cc1n[nH]c2nc(-c3ccc(O)cc3)cc(C(=O)N3CCNC(C(F)(F)F)C3)c12 (stereo not drawn) [Example 196, [6-(4-Hydroxy-phenyl)-3-methyl-1H-pyrazolo[3,4-b]pyridin-4-yl]-(3-trifluoromethyl-piperazin-1-yl)-methanone] | 75 | 
14 | COC(=O)CC1CNCCN1C(=O)c1cc(-c2ccc(O)cc2)nc2[nH]nc(C)c12 (stereo not drawn) [Example 197, {1-[6-(4-Hydroxy-phenyl)-3-methyl-1H-pyrazolo[3,4-b]pyridine-4-carbonyl]-piperazin-2-yl}-acetic acid methyl ester] | 95 | 
15 | Cc1n[nH]c2nc(-c3ccc(O)cc3)cc(C(=O)N3CCNC(C)(C)C3)c12 [Example 198, (3,3-Dimethyl-piperazin-1-yl)-[6-(4-hydroxy-phenyl)-3-methyl-1H-pyrazolo[3,4-b]pyridin-4-yl]-methanone] | 99 | 
16 | Cc1n[nH]c2nc(-c3ccc(O)cc3)cc(C(=O)N3CCNCC3(C)C)c12 [Example 199, (2,2-Dimethyl-piperazin-1-yl)-[6-(4-hydroxy-phenyl)-3-methyl-1H-pyrazolo[3,4-b]pyridin-4-yl]-methanone] | 99 | 
17 | Cc1n[nH]c2nc(-c3ccc(O)cc3)cc(C(=O)N[C@@H]3CN4CCC3CC4)c12 [Example 200] |  | 70

Row | Compound | inhibition at 1.14 µM [%] | % Inhibition [%]
18 | Cc1n[nH]c2nc(-c3ccc(O)cc3)cc(C(=O)NC3CC4CCC(C3)N4C)c12 [Example 201, 6-(4-Hydroxy-phenyl)-3-methyl-1H-pyrazolo[3,4-b]pyridine-4-carboxylic acid ((3R)-8-methyl-8-aza-bicyclo[3.2.1]oct-3-yl)-amide] |  | 55
19 | Cc1n[nH]c2nc(-c3ccc(O)cc3)cc(C(=O)N3CCNC[C@@H]3C(C)C)c12 [Example 202, [6-(4-Hydroxy-phenyl)-3-methyl-1H-pyrazolo[3,4-b]pyridin-4-yl]-((S)-2-isopropyl-piperazin-1-yl)-methanone] | 101 | 
20 | Cc1n[nH]c2nc(-c3ccc(O)cc3)cc(C(=O)N3CC[C@@H](C4(N)CC4)C3)c12 [Example 203, [(R)-3-(1-Amino-cyclopropyl)-pyrrolidin-1-yl]-[6-(4-hydroxy-phenyl)-3-methyl-1H-pyrazolo[3,4-b]pyridin-4-yl]-methanone] | 71 | 
21 | Cc1n[nH]c2nc(-c3ccc(O)cc3)cc(C(=O)NC3CCNC4(CCC4)C3)c12 (stereo not drawn) [Example 204, 6-(4-Hydroxy-phenyl)-3-methyl-1H-pyrazolo[3,4-b]pyridine-4-carboxylic acid (5-aza-spiro[3.5]non-8-yl)-amide] | 82 | 
22 | COC(=O)[C@H]1CNCCN1C(=O)c1cc(-c2ccc(O)cc2)nc2[nH]nc(C)c12 [Example 206, (R)-1-[6-(4-Hydroxy-phenyl)-3-methyl-1H-pyrazolo[3,4-b]pyridine-4-carbonyl]-piperazine-2-carboxylic acid methyl ester] | 98 | 
23 | Cc1n[nH]c2nc(-c3ccc(O)cc3)cc(C(=O)NC3CN4CCC3CC4)c12 (stereo not drawn) [Example 207, 6-(4-Hydroxy-phenyl)-3-methyl-1H-pyrazolo[3,4-b]pyridine-4-carboxylic acid (1-aza-bicyclo[2.2.2]oct-3-yl)-amide] | 94 | 
24 | Cc1n[nH]c2nc(-c3ccc(O)cc3)cc(C(=O)N[C@@H]3CCC(=O)NC3)c12 [Example 208, 6-(4-Hydroxy-phenyl)-3-methyl-1H-pyrazolo[3,4-b]pyridine-4-carboxylic acid ((R)-6-oxo-piperidin-3-yl)-amide] | 88 | 
25 | CCCC[C@H]1CN(C(=O)c2cc(-c3ccc(O)cc3)nc3[nH]nc(C)c23)CCN1 [Example 209, ((S)-3-Butyl-piperazin-1-yl)-[6-(4-hydroxy-phenyl)-3-methyl-1H-pyrazolo[3,4-b]pyridin-4-yl]-methanone] | 97 | 
26 | CC[C@H]1CN(C(=O)c2cc(-c3ccc(O)cc3)nc3[nH]nc(C)c23)CCN1 [Example 210, ((S)-3-Ethyl-piperazin-1-yl)-[6-(4-hydroxy-phenyl)-3-methyl-1H-pyrazolo[3,4-b]pyridin-4-yl]-methanone] | 100 | 
27 | COC(=O)[C@H]1CN(C(=O)c2cc(-c3ccc(O)cc3)nc3[nH]nc(C)c23)CCN1 [Example 211, (R)-4-[6-(4-Hydroxy-phenyl)-3-methyl-1H-pyrazolo[3,4-b]pyridine-4-carbonyl]-piperazine-2-carboxylic acid methyl ester] | 64 | 
28 | COC[C@H]1CN(C(=O)c2cc(-c3ccc(O)cc3)nc3[nH]nc(C)c23)CCN1 [Example 212, [6-(4-Hydroxy-phenyl)-3-methyl-1H-pyrazolo[3,4-b]pyridin-4-yl]-((R)-3-methoxymethyl-piperazin-1-yl)-methanone] | 94 | 
29 | CO[C@H]1CNC[C@@H]1NC(=O)c1cc(-c2ccc(O)cc2)nc2[nH]nc(C)c12 [Example 213, 6-(4-Hydroxy-phenyl)-3-methyl-1H-pyrazolo[3,4-b]pyridine-4-carboxylic acid ((3S,4S)-4-methoxy-pyrrolidin-3-yl)-amide] | 94 | 
30 | Cc1n[nH]c2nc(-c3ccc(O)cc3)cc(C(=O)N[C@H]3[C@@H]4CNC[C@@H]43)c12 [Example 214, 6-(4-Hydroxy-phenyl)-3-methyl-1H-pyrazolo[3,4-b]pyridine-4-carboxylic acid (3-azabicyclo[3.1.0]hex-6-yl)-amide] | 73 | 
31 | Cc1n[nH]c2nc(-c3ccc(O)cc3)cc(C(=O)N3CCN[C@@H](CC(C)C)C3)c12 [Example 215, [6-(4-Hydroxy-phenyl)-3-methyl-1H-pyrazolo[3,4-b]pyridin-4-yl]-((S)-3-isobutyl-piperazin-1-yl)-methanone] | 99 | 
32 | Cc1n[nH]c2nc(-c3ccc(O)cc3)cc(C(=O)NCC3CCNC3)c12 (stereo not drawn) [Example 216, 6-(4-Hydroxy-phenyl)-3-methyl-1H-pyrazolo[3,4-b]pyridine-4-carboxylic acid (pyrrolidin-3-ylmethyl)-amide] | 92 | 
33 | Cc1n[nH]c2nc(-c3ccc(O)cc3)cc(C(=O)N3CCNCC3Cc3ccccc3)c12 (stereo not drawn) [Example 217, (2-Benzyl-piperazin-1-yl)-[6-(4-hydroxy-phenyl)-3-methyl-1H-pyrazolo[3,4-b]pyridin-4-yl]-methanone] | 93 | 
